Experimental data taken from patent publication US9738902B2, “Modified PYR/PYL receptors activated by ligands” (priority 2013, dated 2017).

Legend:
PYR1 K59R A89I = target: T1, PYR1 K59R A89I (Arabidopsis thaliana, UniProt O49686, A89I/K59R); experiment: Y2H Pocket Library Screen (HAB1, X-gal); assay type: cell-based
T1 construct: expressed in transfected cells; host or cells: S. cerevisiae Y190 yeast two-hybrid reporter strain
Protocol: (§1) The set of 475 mutant plasmids were individually transformed into the Y190 yeast two hybrid reporter strain co-transformed with pACT-HAB1, as previously described (Park et al., 2009). The yeast strains generated were arrayed into 96-well plates yielding what we refer to as the “pocket library”. The pocket library strains were spotted onto agar plates containing selective synthetic dextrose (minus Leu & Trp) medium that was supplemented with a single test compound at 100 μM. The pocket library strains were separately tested for responsiveness to the following compounds: dichlobenil, benzothiadiazole, mandipropamid, fludioxonil, and benoxacor. After incubating test plates at 30° C. for two days, colonies were chloroform lysed and stained to reveal β-galactosidase expression levels, using previously described methods (Park et al., 2009). Mutants displaying responsiveness to the test compound, if present, were identified by virtue of X-gal staining and then subjected to subsequent optimization efforts. Using this approach we identified mutations that conferred detectable sensitivity to the compounds tested (see entries labeled “Pocket Library Screens” in Table 1).

PYR1 K59R A89W = target: T2, PYR1 K59R A89W (Arabidopsis thaliana, UniProt O49686, A89W/K59R); experiment: Y2H Pocket Library Screen (HAB1, X-gal); assay type: cell-based
T2 construct: expressed in transfected cells; host or cells: S. cerevisiae Y190 yeast two-hybrid reporter strain
T2 sequence (O49686 whole entry K59R/A89W): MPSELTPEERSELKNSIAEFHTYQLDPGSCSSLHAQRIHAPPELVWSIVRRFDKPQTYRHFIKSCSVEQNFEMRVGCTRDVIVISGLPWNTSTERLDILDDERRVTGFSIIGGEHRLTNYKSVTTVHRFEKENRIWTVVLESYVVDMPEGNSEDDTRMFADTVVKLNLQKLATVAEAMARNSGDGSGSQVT
T2 sequence (Q9CAJ0 23-511, further chain): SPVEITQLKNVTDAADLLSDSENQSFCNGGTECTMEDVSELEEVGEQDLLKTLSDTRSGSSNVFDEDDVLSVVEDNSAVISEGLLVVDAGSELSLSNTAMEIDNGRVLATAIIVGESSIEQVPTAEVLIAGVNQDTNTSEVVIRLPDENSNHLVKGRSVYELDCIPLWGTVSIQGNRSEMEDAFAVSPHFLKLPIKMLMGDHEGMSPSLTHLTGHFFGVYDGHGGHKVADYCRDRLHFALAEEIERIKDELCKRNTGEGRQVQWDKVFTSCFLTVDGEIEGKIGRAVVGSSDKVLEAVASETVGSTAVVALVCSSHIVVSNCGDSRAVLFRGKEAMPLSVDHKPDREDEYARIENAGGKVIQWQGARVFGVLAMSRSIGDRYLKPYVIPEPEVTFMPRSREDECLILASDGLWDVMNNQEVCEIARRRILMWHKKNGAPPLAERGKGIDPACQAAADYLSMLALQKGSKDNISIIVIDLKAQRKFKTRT
Protocol: as §1

PYR1 K59R F159V = target: T3, PYR1 K59R F159V (Arabidopsis thaliana, UniProt O49686, F159V/K59R); experiment: Y2H Pocket Library Screen (HAB1, X-gal); assay type: cell-based
T3 construct: expressed in transfected cells; host or cells: S. cerevisiae Y190
T3 sequence (O49686 whole entry K59R/F159V): as the sequence (O49686 whole entry K59R/A89W) above, with W89A, F159V counted along it
T3 sequence (Q9CAJ0 23-511, further chain): as the sequence (Q9CAJ0 23-511, further chain) above
Protocol: as §1

PYR1 K59R L87F = target: T4, PYR1 K59R L87F (Arabidopsis thaliana, UniProt O49686, K59R/L87F); experiment: Y2H Pocket Library Screen (HAB1, X-gal); assay type: cell-based
T4 construct: expressed in transfected cells; host or cells: S. cerevisiae Y190 yeast two-hybrid reporter strain
T4 sequence (O49686 whole entry K59R/L87F): as the sequence (O49686 whole entry K59R/A89W) above, with L87F, W89A counted along it
T4 sequence (Q9CAJ0 23-511, further chain): as the sequence (Q9CAJ0 23-511, further chain) above
Protocol: as §1

PYR1 K59R M158C = target: T5, PYR1 K59R M158C (Arabidopsis thaliana, UniProt O49686, K59R/M158C); experiment: Y2H Pocket Library Screen (HAB1, X-gal); assay type: cell-based
T5 construct: expressed in transfected cells; host or cells: S. cerevisiae Y190 two-hybrid reporter strain
T5 sequence (O49686 whole entry K59R/M158C): as the sequence (O49686 whole entry K59R/A89W) above, with W89A, M158C counted along it
T5 sequence (Q9CAJ0 23-511, further chain): as the sequence (Q9CAJ0 23-511, further chain) above
Protocol: as §1

PYR1 K59R M158T = target: T6, PYR1 K59R M158T (Arabidopsis thaliana, UniProt O49686, K59R/M158T); experiment: Y2H Pocket Library Screen (HAB1, X-gal); assay type: cell-based
T6 construct: expressed in transfected cells; host or cells: S. cerevisiae Y190 two-hybrid reporter strain
T6 sequence (Q9CAJ0 23-511): as the sequence (Q9CAJ0 23-511, further chain) above
T6 sequence (O49686 whole entry K59R/M158T): as the sequence (O49686 whole entry K59R/A89W) above, with W89A, M158T counted along it
Protocol: as §1

PYR1 K59R M158V = target: T7, PYR1 K59R M158V (Arabidopsis thaliana, UniProt O49686, K59R/M158V); experiment: Y2H Pocket Library Screen (HAB1, X-gal); assay type: cell-based
T7 construct: expressed in transfected cells; host or cells: S. cerevisiae Y190 two-hybrid reporter strain
T7 sequence (O49686 whole entry K59R/M158V): as the sequence (O49686 whole entry K59R/A89W) above, with W89A, M158V counted along it
T7 sequence (Q9CAJ0 23-511, further chain): as the sequence (Q9CAJ0 23-511, further chain) above
Protocol: as §1

PYR1 K59R S92I = target: T8, PYR1 K59R S92I (Arabidopsis thaliana, UniProt O49686, K59R/S92I); experiment: Y2H Pocket Library Screen (HAB1, X-gal); assay type: cell-based
T8 construct: expressed in transfected cells; host or cells: S. cerevisiae Y190 yeast two-hybrid reporter strain
T8 sequence (O49686 whole entry K59R/S92I): as the sequence (O49686 whole entry K59R/A89W) above, with W89A, S92I counted along it
T8 sequence (Q9CAJ0 23-511, further chain): as the sequence (Q9CAJ0 23-511, further chain) above
Protocol: as §1

PYR1 K59R S92W = target: T9, PYR1 K59R S92W (Arabidopsis thaliana, UniProt O49686, K59R/S92W); experiment: Y2H Pocket Library Screen (HAB1, X-gal); assay type: cell-based
T9 construct: expressed in transfected cells; host or cells: S. cerevisiae Y190 yeast two-hybrid reporter strain
T9 sequence (Q9CAJ0 23-511): as the sequence (Q9CAJ0 23-511, further chain) above
T9 sequence (O49686 whole entry K59R/S92W): as the sequence (O49686 whole entry K59R/A89W) above, with W89A, S92W counted along it
Protocol: as §1

PYR1 K59R T162W = target: T10, PYR1 K59R T162W (Arabidopsis thaliana, UniProt O49686, K59R/T162W); experiment: Y2H Pocket Library Screen (HAB1, X-gal); assay type: cell-based
T10 construct: expressed in transfected cells; host or cells: S. cerevisiae Y190
T10 sequence (O49686 whole entry K59R/T162W): as the sequence (O49686 whole entry K59R/A89W) above, with W89A, T162W counted along it
T10 sequence (Q9CAJ0 23-511, further chain): as the sequence (Q9CAJ0 23-511, further chain) above
Protocol: as §1

PYR1 K59R A89I S92I = target: T11, PYR1 K59R A89I S92I (Arabidopsis thaliana, UniProt O49686, A89I/K59R/S92I); experiment: Y2H Combinatorial Mutagenesis Screen I (HAB1, X-gal); assay type: cell-based
T11 construct: expressed in transfected cells; host or cells: S. cerevisiae Y190 two-hybrid reporter strain
T11 sequence (O49686 whole entry K59R/A89I/S92I): as the sequence (O49686 whole entry K59R/A89W) above, with W89I, S92I counted along it
T11 sequence (Q9CAJ0 23-511, further chain): as the sequence (Q9CAJ0 23-511, further chain) above
Excerpt: (§2) This screening approach yielded mutants at ligand contacting residues that alter sensitivity to specific ligands. We reasoned that receptor sensitivity could be improved by systematically constructing combinations of the best mutant variants identified in the first round of screening. To test this, we constructed mutant combinations using the strongest mutations identified for mandipropamid, benzothiadiazole, benoxacor or fludioxonil sensitivity. The mutations selected for combinatorial mutagenesis are listed in bold type in Table 1; The mutant combinations were constructed using the QuickChange Lightning Multi Site-Directed PCR Mutagenesis kit (Agilent, USA) using pBD-PYR1^K59R template DNA and mutagenic primers, essentially as previously described (Mosquna et al., 2011). The mutant combinations were sequence validated, introduced into the pACT-HAB1 Y190 reporter strain and then tested for responsiveness to a range of compound concentrations (100, 50, 25, 10, 1, 0.2, 0.1 or 0 μM each test compound). These efforts yielded double mutant receptor variants with improved sensitivity for the 4 compound/receptor pairs examined (see entries labeled “Combinatorial Mutagenesis Screen I” in Table 1).

PYR1 K59R A89I S92W = target: T12, PYR1 K59R A89I S92W (Arabidopsis thaliana, UniProt O49686, A89I/K59R/S92W); experiment: as above; assay type: cell-based
T12 construct: expressed in transfected cells; host or cells: S. cerevisiae Y190 two-hybrid reporter strain
T12 sequence (Q9CAJ0 23-511): as the sequence (Q9CAJ0 23-511, further chain) above
T12 sequence (O49686 whole entry K59R/A89I/S92W): as the sequence (O49686 whole entry K59R/A89W) above, with W89I, S92W counted along it
Excerpt: as §2

[1] = target: T13, GST-HAB1 with 6×-His-PYR1^MANDI (Arabidopsis thaliana, UniProt O49686, F108A/F159L/K59R/S122G/V81I/Y58H); experiment: PP2C enzyme inhibition assay (4-methylumbelliferyl-phosphate); assay type: biochemical; conditions: PYR1^MANDI with GST-HAB1, GST-ABI1, GST-ABI2
T13 construct: made in house; host or cells: E. coli BL21[DE3]pLysS (receptor)
T13 sequence (Q9CAJ0 23-511): as the sequence (Q9CAJ0 23-511, further chain) above
T13 sequence (O49686 whole entry Y58H/K59R/V81I/F108A/S122G/F159L): as the sequence (O49686 whole entry K59R/A89W) above, with Y58H, V81I, W89A, F108A, S122G, F159L counted along it
Protocol: We next characterized the effects of recombinant PYR1^MANDI on PP2C activity using the fluorogenic substrate 4-methylumbelliferyl-phosphate. Recombinant receptor and PP2C proteins were prepared as described above and used to examine PP2C inactivation in response to mandipropamid or ABA. Enzyme inhibition assays were conducted using the following assay conditions: 100 nM 6×-His-PYR1^MANDI, 50 nM GST-PP2C, 100 mM Tris-OAc (pH 7.9), 100 mM NaCl, 1 mM MnCl2, 1% β-mercaptoethanol. […] The three ABA-regulated clade A PP2Cs, GST-HAB1, GST-ABI1 and GST-ABI2 were each tested under the same enzyme conditions in separate reactions. The assays were conducted at a variety of mandipropamid or ABA concentrations so that IC50 values could be determined. […] Thus, the PYR1^MANDI receptor is highly sensitive to activation by mandipropamid and interacts with multiple clade A PP2Cs in response to mandipropamid. This high level of sensitivity is consistent with the yeast two hybrid results described above in which a detectable interaction between PYR1^MANDI and HAB1 could be observed at concentrations as low as 2 nM (see Table 1). We note that the yeast two hybrid reporter systems requires only a small percentage of PYR1^MANDI receptors to bind HAB1 for an interaction signal and is therefore a potentially more sensitive indicator than in vitro assays. […] Thus these in vitro assays confirm that PYR1^MANDI is selectively activated by mandipropamid.

PYR1-OX = experiment: qRT-PCR of ABA-regulated genes RD29B and RAB18; assay type: in vivo, Arabidopsis; conditions: 50 μM ABA, 8 hours
Protocol: One of ABA's major effects is to regulate gene expression. We therefore examined the effects of ABA and mandipropamid on gene expression in wild type, PYR-OX, MDP1 and MPD2 transgenic plants. Seed of the wild type or transgenic lines were surface sterilized, stratified for 4 days at 4° C. and then grown for 10 days at room temperature under continuous illumination in a liquid culture consisting of 0.5×MS salts and 0.5% sucrose and grown with continuous shaking to provide aeration. After 10 days, the culture solutions were adjusted to contain 50 μM ABA, 2 μM mandipropamid, or a mock treatment. After 8 hours exposure to the test compounds RNA was isolated using RNAEasy™ Plant RNA isolation kit (Qiagen, USA) and treated with DNAse. The purified RNA was utilized in qRT-PCR reactions using primers for the ABA-regulated genes RD29B or RAB18. Biological triplicate and triple technical replicate measurements were conducted. To perform qRT-PCR analyses, cDNA was generated from 5 μg of total RNA using superscript reverse transcriptase III (Invitrogen, USA), in reaction mixture containing a oligo-dT20 (SEQ ID NO:110) and a ribosomal RNA primer. Real-time quantitative PCR analysis was performed by ΔCt method of relative quantification. PCR mixtures contained cDNA, Maxima® SYBR green/Fluorescein qPCR master mix (Fermentas, USA) and 330 nM of each gene-specific primer. RT-PCRs were conducted using a BioRad CFX96 Real-Time PCR System and the data were processed using the BioRad CFX Manager software (BioRad, USA). PCRs were performed under the following cycling conditions: 3 min at 95° C., followed by 40 cycles of 10 sec at 95° C., 10 sec at 55° C. and 30 sec at 72° C. in 96-well optical reaction plates (BioRad, USA). The specificity of amplicons was verified by melting curve (disassociation) analysis (60-95° C.) after 40 cycles. Input cDNA was normalized using an internal control gene, PEX4 (AT5G25760).

T1 sequence (O49686 whole entry K59R/A89I): as the sequence (O49686 whole entry K59R/A89W) above, with W89I counted along it
T1 sequence (Q9CAJ0 23-511, further chain): as the sequence (Q9CAJ0 23-511, further chain) above

Row | Structure (SMILES) | Threshold (PYR1 K59R A89I) [µM] | Threshold (PYR1 K59R A89W) [µM] | Threshold (PYR1 K59R F159V) [µM] | Threshold (PYR1 K59R L87F) [µM] | Threshold (PYR1 K59R M158C) [µM] | Threshold (PYR1 K59R M158T) [µM] | Threshold (PYR1 K59R M158V) [µM] | Threshold (PYR1 K59R S92I) [µM] | Threshold (PYR1 K59R S92W) [µM] | Threshold (PYR1 K59R T162W) [µM] | Threshold (PYR1 K59R A89I S92I) [µM] | Threshold (PYR1 K59R A89I S92W) [µM] | activation of the receptors by ABA [1] | levels of RAB18 and RD29 induced by ABA, compared with wild type (PYR1-OX)
1 | CC1COc2ccccc2N1C(=O)C(Cl)Cl (centres unmarked) [Benoxacor, benoxacor] | 100 | 100 | 100 | 100 | 100 | 100 | 100 | 50 | 50 | 50 | 50 | 50 |  | 
2 | CC1=CC(=O)CC(C)(C)[C@@]1(O)/C=C/C(C)=C\C(=O)O [ABA, abscisic acid] |  |  |  |  |  |  |  |  |  |  |  |  | not appreciably activated | higher
